Calls of active or inactive are those of the source. No stated cut-off is given here; in the data, actives have a measured EC50 and inactives only a lower limit.
Columns and labels:
[1] = Trypanosoma cruzi growth suppression in host cells – NIH3T3 host cells, beta-gal luminescence, confirmation (AID 2044); type: functional, cell-based;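 further: intracellular parasites grown in NIH/3T3 mouse fibroblasts as host cells; luminescent beta-galactosidase reporter signal from transgenic T. cruzi replicating inside host cells; inhibitors lower the luminescence signal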
[2] = NIH3T3 cell viability loss – ATP luminescence, mouse fibroblasts, counter-screen, dose response (AID 2010); type: functional, cell-based;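 further: cells exposed to compound for about 90 hours before reading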
[3] = biological target: T1, Heat shock factor protein 1 (Mus musculus, UniProt P38532); experiment: decrease of HSF1-responsive luciferase luminescence – cell-based, NIH3T3, dose retest, confirmation (AID 2382); type: functional;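 further: NIH3T3 fibroblasts with HSF1-driven luciferase reporter stressed by proteasome inhibitor MG132; luminescence from HSF1-driven luciferase expression after 8 hours of MG132 stress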
T1 sequence (P38532 whole entry): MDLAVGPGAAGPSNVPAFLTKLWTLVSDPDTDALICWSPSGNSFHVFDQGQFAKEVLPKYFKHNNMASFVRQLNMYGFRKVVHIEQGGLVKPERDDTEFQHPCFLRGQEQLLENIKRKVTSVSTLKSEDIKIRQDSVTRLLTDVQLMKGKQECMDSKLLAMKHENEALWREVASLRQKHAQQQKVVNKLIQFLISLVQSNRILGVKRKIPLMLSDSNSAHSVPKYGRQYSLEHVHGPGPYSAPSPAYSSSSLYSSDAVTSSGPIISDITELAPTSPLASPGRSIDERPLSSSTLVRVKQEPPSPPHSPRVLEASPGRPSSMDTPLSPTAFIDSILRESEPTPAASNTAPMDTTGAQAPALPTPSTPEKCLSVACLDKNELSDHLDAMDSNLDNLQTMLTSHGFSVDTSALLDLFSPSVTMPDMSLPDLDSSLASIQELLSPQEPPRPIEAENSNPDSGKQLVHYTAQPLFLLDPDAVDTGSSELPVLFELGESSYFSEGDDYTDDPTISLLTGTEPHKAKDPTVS

EC50 [3] | SMILES | EC50 [1] | EC50 [2]
 | CC1CCCCN1C(=O)C(=O)c1cn(CC(=O)N2CCCCCC2)c2ccccc12 (stereo not drawn) | 1.49 µM (active) | > 60 µM (not active)
> 195 µM (not active) | CN(Cc1ccccc1)C(=O)CCS(=O)(=O)c1ccc2c(c1)n(C)c(=O)c(=O)n2C |  | 
> 195 µM (not active) | CCOc1ccc(CNCCCSc2ncccn2)cc1OC |  | 
> 195 µM (not active) | COc1ccc(N2CC(C(=O)Nc3nnc(C4CCCCC4)s3)CC2=O)cc1 (stereo not drawn) |  | 
 | COc1ccc(Cc2nc3c4c(ncn3n2)Oc2ccc3ccccc3c2C4c2ccc(OC)c(OC)c2)cc1 (stereo not drawn) | 1.52 µM (active) | > 60 µM (inconclusive)
> 195 µM (not active) | CC(C)CCc1c(O)nc(SCC(=O)N2CCCCCC2)nc1O |  | 
> 195 µM (not active) | Cn1c(C(C#N)C(=O)c2sc3ccccc3c2Cl)nc2ccccc21 (stereo not drawn) |  | 
> 195 µM (not active) | Cn1c(-c2nonc2N)nc2ccccc21 |  | 
 | COc1ccc(CCN=C(S)NCc2ccc(Cl)c(Cl)c2)cc1OC | 2.05 µM (active) | > 60 µM (inconclusive)
 | CCOc1ccc2nc(O)c(CN(Cc3cccs3)Cc3nnnn3C(C)(C)CC)cc2c1 | 2.56 µM (active) | > 30 µM (not active)
 | CCCCCCCC(=O)Nc1cc(C(=O)NCCC)ccc1N1CCC2(CC1)CC(c1ccccc1)=NO2 | 1.76 µM (active) | > 60 µM (not active)
> 195 µM (not active) | CCc1ccccc1NC(=O)CSc1nnc(-c2ccncc2)o1 |  | 
 | Cc1ccc2sc(N(CCCN(C)C)C(=O)c3ccc(S(=O)(=O)N(C)Cc4ccccc4)cc3)nc2c1C | 0.451 µM (active) | 11.7 µM (active)
 | O=C(Nc1ccncc1)c1ccc(-c2ccccc2)cc1 | 1.44 µM (active) | > 60 µM (inconclusive)
 | FC(F)(F)c1cccc(-c2cc(C3CCNCC3)n[nH]2)c1 | 3.5 µM (active) | 8.6 µM (active)
0.249 µM (active) | COC(=O)c1c[nH]nc1N=C(S)Nc1ccc(Cl)c(Cl)c1 |  | 
> 195 µM (not active) | O=C(Nc1ccc(F)cc1)c1ccc(O)nn1 |  | 
> 195 µM (not active) | O=C(Nc1ccc(-n2ccnc2P(=O)(O)c2ccccc2)cc1)c1ccccc1Cl |  | 
 | CCCCSc1nc2ccc(Nc3nc(N4CCOCC4)nc(N4CCOCC4)n3)cc2s1 | 1.45 µM (active) | > 60 µM (not active)
> 195 µM (not active) | CC(=O)C1=C(O)C(=O)N(c2ccc(C)cc2)C1c1ccccn1 (stereo not drawn) |  | 
 | Clc1ccc(SCCOCCN2CCOCC2)cc1 | 0.803 µM (active) | > 60 µM (not active)

EC50 [3] | SMILES | EC50 [1] | EC50 [2]
> 195 µM (not active) | O=C(NCc1ccncc1)c1ccc(Cl)c(S(=O)(=O)N2CCOCC2)c1 |  | 
 | Cc1occc1C(=O)N/N=C/c1ccc(-c2cccc([N+](=O)[O-])c2)o1 | 2.05 µM (active) | > 60 µM (not active)
> 195 µM (not active) | O=C(N/N=C/c1ccc(Br)o1)c1ccc2c(c1)OCCO2 |  | 
> 195 µM (not active) | CCCS(=O)(=O)N1CCc2cc(OC)c(OC)cc2C1 |  | 
> 195 µM (not active) | CCn1c(=O)n(CC)c2cc(N3CCCC3)c(NC(=O)c3ccc(OC)c(Br)c3)cc21 |  | 
> 195 µM (not active) | CCOC(=O)c1c(C)[nH]c(C(=O)COC(=O)C2=NNC(=O)CC2)c1C |  | 
 | Cc1cc(N2CCN(C)CC2)nc2ccc(NC(=O)c3ccccc3F)cc12 | 1.02 µM (active) | > 60 µM (not active)
> 195 µM (not active) | CCCCOc1ccc(C2C(=O)N(C3CCCCC3)CC(=O)N2CC2CCCO2)cc1 (stereo not drawn) |  | 
 | Cc1ccc(C(=O)NC(=S)Nc2ccc(Oc3ccc(Cl)cc3)cc2)cc1 | 2.09 µM (active) | > 60 µM (inconclusive)
 | Cc1cccc2cc(CN(Cc3ccc(F)cc3)Cc3nnnn3C3CCCC3)c(O)nc12 | 2.38 µM (active) | 28.9 µM (active)
60.1 µM (active) | COc1ccc(C(=O)C2CCCN(Cc3ccc(NC(C)=O)cc3)C2)cc1OC (stereo not drawn) |  | 
> 195 µM (not active) | Cc1nnc(N2C(=O)c3cccc4cccc(c34)C2=O)s1 |  | 
 | CCCCSc1nc2sc3c(c2c(=O)n1-c1ccccc1)CCN(C)C3 | 0.143 µM (active) | > 60 µM (not active)
> 195 µM (not active) | CCN1CCN(C(=O)C2CCN(C(=O)c3cc4sccc4n3CC)CC2)CC1 |  | 
> 195 µM (not active) | CC(=O)Nc1cccc(C(=O)/C=C/c2ccc(C)cc2)c1 |  | 
> 195 µM (not active) | O=[N+]([O-])c1ccc(/N=C/c2sc3ccccc3c2O)cc1 |  | 
86.1 µM (active) | CCOC(=O)Cc1cc(O)c2cc(C)ccc2n1 |  | 
 | O=C(CCc1nc(O)c2ccccc2n1)N1CCN(C/C=C/c2ccccc2)CC1 | 0.276 µM (active) | > 30 µM (not active)
> 195 µM (not active) | CCCC1c2ccc(C)n2CCN1C(=O)Nc1ccc(F)cc1 (stereo not drawn) |  | 
> 195 µM (not active) | Nc1nonc1-c1noc(-c2ccccc2Br)n1 |  | 
 | CCOc1cc(C)c(Cl)cc1S(=O)(=O)n1ccnc1 | 1.83 µM (active) | 21.4 µM (active)

EC50 [3] | SMILES | EC50 [1] | EC50 [2]
> 195 µM (not active) | Nc1ccc2oc(C3CCCCC3)nc2c1 |  | 
> 195 µM (not active) | CC1=C(C(=O)Nc2ccccc2)C(c2cc(CN3CCOCC3)cs2)C2=C(O)CCCC2=N1 (stereo not drawn) |  | 
> 195 µM (not active) | Cc1cc(=O)[nH]c2c1c(=O)[nH]n2C1CC(C)N(C)CC1C (stereo not drawn) |  | 
> 195 µM (not active) | CCN(Cc1ccc2c(c1)OCO2)C(=O)/C=C/c1cccc(Br)c1 |  | 
> 195 µM (not active) | CC(NC(=O)c1ccc2c(c1)OCO2)c1ccccc1 (stereo not drawn) |  | 
> 195 µM (not active) | Cc1ccc(C)c(N2CCN(CCN3CCCCC3)CC2)c1 |  | 
 | CC(C)CCNC(=O)CN=C(S)N(Cc1ccccc1)Cc1cccnc1 | 0.65 µM (active) | > 60 µM (not active)
> 195 µM (not active) | CCCC(C)NC(=O)C1c2ccccc2Oc2ccccc21 (stereo not drawn) |  | 
> 195 µM (not active) | CSc1nsc(SCC(=O)NCc2ccc(C)cc2)n1 |  | 
> 195 µM (not active) | COc1ccc(Nc2nc(C)cc(C)c2C#N)cc1OC |  | 
 | COc1ccc(-c2cc(C(=O)N3CCN(c4cccc(C)c4C)CC3)c3ccccc3n2)cc1OC | 2.93 µM (active) | > 60 µM (not active)
32.2 µM (active) | CCC(=O)N1C(C(=O)N2CCCC2)CSC1c1ccc(OC)cc1 (stereo not drawn) |  | 
 | CC1=C(C(=O)N2CCc3ccccc32)C2(CCC(C)CC2)OC1=O (stereo not drawn) | 2.67 µM (active) | > 60 µM (not active)
 | Cc1ccc(N/C(SCc2ccccc2C)=C(/C#N)C(=O)NCc2ccco2)cc1C | 1.3 µM (active) | > 60 µM (not active)
> 195 µM (not active) | COc1ccccc1-n1ccnc(SCC(=O)NCc2ccccc2)c1=O |  | 
> 195 µM (not active) | CCCC1=Nc2cc(C(=O)NCCCN3CCN(C)CC3)ccc2Sc2ccccc21 |  | 
> 195 µM (not active) | COc1cc(OC)cc(C(=O)N2CCN(S(C)(=O)=O)CC2)c1 |  | 
> 195 µM (not active) | CCCC(=O)Nc1ccc(Cl)c(NC(=O)c2cccnc2)c1 |  | 
> 195 µM (not active) | CCC(Sc1nc2cc(OC)c(OC)cc2c(=O)n1CCc1ccc(S(N)(=O)=O)cc1)C(=O)NCCOC (stereo not drawn) |  | 
> 195 µM (not active) | c1ccc(Cc2nc3ccccc3o2)cc1 |  | 

Source: ChEMBL document CHEMBL1201862, “PubChem BioAssay data set” (2004)
